In US8815935B2, “Inhibitors of protein prenyltransferases” (The Regents of the University of California, priority 2008, dated 2014):
Entries after “also recorded” stand apart in the source; their conditions may differ.

Columns and labels:
K562 cells = experiment: K562 cell growth inhibition; type: cell-based, human; conditions: 72 hours
Method in brief: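 Human erythroleukemia K562 cells exposed to compound for 72 hours. Cell number measured with CCK-8 and viability expressed relative to the DMSO control.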

FTase = target: T1, FTase (Rattus norvegicus, UniProt Q02293+Q04631); experiment: In vitro FTase assay (K-Ras4B substrate, [3H]FPP); type: biochemical; conditions: concentration increased to 50,000 nM
T1 construct: purchased JENA BIOSCIENCE
Description: To further characterize the pilot library, inhibitors of protein farnesyltransferase were identified. This was accomplished by using K-Ras4B as a substrate protein, tritiated farnesylpyrophosphate ([^3H]FPP) and protein farnesyltransferase. See Finegold, A. A., Johnson, D. I., Farnsworth, C. C., Gelb, M. H., Judd, S. R., Glomset, J. A. and Tamanoi, F. (1991) Protein geranylgeranyltransferase of Saccharomyces cerevisiae is specific for Cys-Xaa-Xaa-Leu motif and requires the CDC43 gene product but not the DPR1 gene product. Proc. Natl. Acad. Sci. USA 88, 4448-4452. […] On the other hand, the structure of the compounds P1-F11, P2-B7 and P2-E9 resemble those of GGTIs. The FTI P1-F11 resembles the GGTI P1-F10, while the FTI P2-B7 resembles the GGTI P2-C10. The FTI P2-E9 is similar to the GGTI P2-G3. Similarity of some GGTI and FTI compounds may point to common structural features between the two closely related enzymes. As described before, FTase and GGTase I have similar three-dimensional structures and a shared alpha subunit. On the other hand, FTase specific inhibitors may recognize a region(s) that is different between the two enzymes.
Examples 2-8 illustrate assays of bioactivity. These methods are applicable to the compounds of the present invention having the particular linkers and scaffolds described herein, to determine their activity. […] Varying concentrations of the two compounds were added to each enzyme reaction. The FTase (protein farnesyltransferase) assay was carried out using K-Ras4B as a substrate protein, FTase (JENA Bioscience, San Diego, Calif.) and [3H]farnesyl pyrophosphate. Incubation was for 30 min at 37° C.
GGTase-I and FTase activities were determined by following the incorporation of radiolabeled isoprenoid [^3H]-geranylgeranyl or [^3H]-farnesyl into substrate proteins. FTase or GGTase-I (50 nM) were used to initiate reactions containing 0.4 μM of [^3H]-FPP or 0.5 μM of [^3H]-GGPP and 2 μM of MBP-tagged substrates (K-Ras4B for FTase; RhoA for GGTase-I) in 20 μl of buffer {50 mM Tris-HCl (pH 7.5), 10 mM MgCl2, […] and 5 mM DTT}. Inhibitors were added at the indicated concentrations. The final DMSO concentration was 2.5% for all samples.
Reactions were carried out for 10 min at 30° C. The reaction mixture was spotted onto a filter paper, treated with 10% trichloroacetic acid (TCA) followed by ethanol and acetone washing. The filter was counted using a scintillation counter. Kinetic assays in which the GGPP concentration was varied employed fixed concentrations of GGTase-I and RhoA, and reactions were carried out for 5 min. Similarly, fixed concentrations of GGTase-I and GGPP were used when the amount of RhoA was varied.

RabGGTase = target: T2, RabGGTase (Rattus norvegicus, UniProt Q08602+Q08603); experiment: In vitro RabGGTase (GGTase-II) assay with REP-1; type: biochemical; conditions: up to 10,000 nM
T2 construct: purchased JENA BIOSCIENCE
T2 sequence (Q08602 1-567): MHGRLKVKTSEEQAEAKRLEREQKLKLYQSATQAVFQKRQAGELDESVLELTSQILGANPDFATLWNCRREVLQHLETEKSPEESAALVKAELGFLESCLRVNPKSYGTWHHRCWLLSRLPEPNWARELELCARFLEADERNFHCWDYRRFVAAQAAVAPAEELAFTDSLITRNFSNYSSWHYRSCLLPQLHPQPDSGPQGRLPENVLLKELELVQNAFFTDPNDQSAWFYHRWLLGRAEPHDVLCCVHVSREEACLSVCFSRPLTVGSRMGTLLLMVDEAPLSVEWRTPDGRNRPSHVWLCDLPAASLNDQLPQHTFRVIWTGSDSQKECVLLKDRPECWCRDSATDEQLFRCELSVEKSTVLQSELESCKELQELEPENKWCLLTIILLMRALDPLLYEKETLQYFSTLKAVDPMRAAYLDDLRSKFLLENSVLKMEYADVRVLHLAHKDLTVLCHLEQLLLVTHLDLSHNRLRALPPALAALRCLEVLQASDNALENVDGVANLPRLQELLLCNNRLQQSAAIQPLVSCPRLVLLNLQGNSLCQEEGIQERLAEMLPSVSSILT
T2 sequence (Q08603 1-331): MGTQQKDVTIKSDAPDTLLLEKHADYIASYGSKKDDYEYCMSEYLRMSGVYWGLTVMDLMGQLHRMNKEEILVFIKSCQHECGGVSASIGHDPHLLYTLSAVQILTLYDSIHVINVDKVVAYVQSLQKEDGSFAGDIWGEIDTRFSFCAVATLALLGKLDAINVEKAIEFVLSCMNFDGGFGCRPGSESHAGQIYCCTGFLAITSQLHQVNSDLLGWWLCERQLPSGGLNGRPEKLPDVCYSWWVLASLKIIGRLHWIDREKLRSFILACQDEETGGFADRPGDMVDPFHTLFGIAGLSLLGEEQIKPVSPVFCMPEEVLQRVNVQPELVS
Protocol: The GGTase-I assay was carried out using RhoA as a substrate protein, GGTase-I (JENA Bioscience) and [3H]geranylgeranyl pyrophosphate. Incubation was for 30 min at 37° C. GGTase-II (or RabGGTase) assay was carried out using YPTI as a substrate protein, GGTase-II (Calbiochem, San Diego, Calif.) plus REP1 (Calbiochem) and [3H]geranylgeranyl pyrophosphate. Incubation was for 30 min at 37° C. FIGS. 20D-20F show the three dimensional structure of GGTase I (D), FTsse (E) and GGTase II (F) which can be obtained from X-ray diffraction studies of protein crystals.
For RabGGTase assays, the reaction contained the following components in 20 μl; 0.625 μl of [^3H]-GGPP (0.7 μM), 25 nM RabGGTase, 0.6 μM REP-1, 0.6 μM purified Rab7 or Ypt1 protein, 40 mM HEPES (pH 7.5), 150 mM NaCl, 5 mM DTT, 3 mM MgCl2 and 0.3% CHAPS. Reactions were carried out for 20 min at 37° C. and the products were analyzed as described above for the GGTase-I reaction. Graphing and Michaelis-Menten analysis were performed using Prism version5 (GraphPad, San Diego Calif.).

[1] = system: Rap1 geranylgeranylation in NIH3T3 cells; experiment: Unprenylated Rap1 immunoblot in NIH3T3 cells; type: cell-based; conditions: 48 hours
Protocol: The inhibition of GGTase-I catalyzed protein geranylgeranylation was assessed by examining the accumulation of unprenylated Rap1. To measure the level of unprenylated Rap1, cells were cultured in DMEM plus 10% (v/v) FBS overnight, and then DMSO or appropriate inhibitors were added. Incubation was continued for 48 hours. The cells were harvested and lysed in lysis buffer (20 mM Tris-HCl, pH 7.5, 150 mM NaCl, 1 mM EDTA, 1% NP-40 and 1× Protease Inhibitor Cocktail). Whole cell lysates of NIH3T3 cells were electrophoresed on a 12% SDS-PAGE, transferred to nitrocellulose membranes and immunoblotted with the antibody against unprenylated form of Rap1 (Santa Cruz Biotechnology catalog number sc-1482, goat), total-Rap1 (Santa Cruz: sc-65) or actin (Sigma: A4700). Actin was used as a loading control.

GGTase-I = target: T3, GGTase-I (Rattus norvegicus, UniProt P53610+Q04631); experiment: In vitro GGTase-I enzyme assay (IC50, kinetics); type: biochemical
T3 construct: purchased JENA BIOSCIENCE
Method in brief: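 Rat GGTase-I (50 nM) with 0.5 μM [3H]-GGPP and 2 μM MBP-RhoA in Tris-HCl pH 7.5, MgCl2, ZnCl2, DTT, 2.5% DMSO, 10 min at 30 °C; radiolabel incorporation by TCA filter binding and scintillation. Kinetics: 5 min reactions varying GGPP or RhoA at fixed other components.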

[2] = system: H-Ras farnesylation in NIH3T3 cells; experiment: H-Ras mobility shift immunoblot in NIH3T3 cells; type: cell-based; conditions: 48 hours
Protocol: K562 cells were treated with modified compounds for 72 hours and then cell number was counted. IC50 values of cell viability relative to the DMSO were measured. […] Data represent the mean+/−S.D. of two measurements from two independent experiments. *, P<0.05 compared with the value for DMSO. […] Whole cell lysates from cells treated with DMSO, P5-H6, P61-A6, GGTI (GGTI-298), FTI (BMS-225975) or RabGGTI (P49-F6) for 48 hours were prepared and processed for immunoblot analysis using antibody against unprenylated form of Rap1 (C: upper panel), Total-Rap1 (C: middle panel), H-Ras (D: upper panel), Rab5b (E: upper panel) or actin (C, D, and E: lower panel). The immunoblots shown represent two independent experiments for each treatment.
This was examined by using a farnesylated protein H-Ras.

IC50 (K562 cells; Homo sapiens, K562, FIG. 36A, read-out: IC50, inhibition of proliferation of K562 cells) [nM] | inhibition of FTase activity (FTase) | inhibition of RabGGTase (RabGGTase) | specificity among GGTase-I, FTase and GGTase-II (GGTase-I; FIGS. 20A-20C, varying concentrations) | Ki (GGTase-I; Michaelis-Menten analysis) [nM] | IC50 (GGTase-I; Tables 5, 14, read-out: In vitro (enzyme assay) IC50, GGTase I) [nM] | Structure (SMILES) | inhibition of proliferation of K562 cells (K562 cells; FIG. 23) | appearance of the unprenylated (unprocessed) Rap1 band [1] | appearance of the unprenylated Rap1 band at 2.5 μM ([1]; 2.5 μM) | mode of GGTase-I inhibition with respect to GGPP (GGTase-I; varying GGPP, fixed RhoA) | mode of GGTase-I inhibition with respect to the protein substrate (RhoA) (GGTase-I; varying RhoA, fixed GGPP) | mobility shift of H-Ras (protein farnesylation) [2]
20000 | no significant inhibition | little inhibition | specifically inhibit GGTase I | 408 ± 32 | 466 | Cc1ccccc1S(=O)(=O)N1[C@@H](c2ccc(Cl)cc2)C(C(=O)O)=C[C@H]1C(C)(C)C (relative stereo) [P5-H6] | inhibit the growth of the K562 cells | in a dose dependent manner; also recorded: inhibits Rap1 geranylgeranylation | not seen | do not compete with GGPP; also recorded: uncompetitive inhibitors | compete with a substrate protein; also recorded: competitive inhibitors | –
– | – | – | – | – | – | Cn1cncc1CN1C[C@@H](Cc2ccccc2)N(S(=O)(=O)c2cccs2)Cc2cc(C#N)ccc21 [BMS-225975] | – | – | – | – | – | slowed the mobility
